According to article PMC8151276, “An Integrated Approach toward NanoBRET Tracers for Analysis of GPCR Ligand Engagement” (Molecules, 2021):

What was measured:
Type in all cases: binding
GNRHR = target: T1, GNRHR (Homo sapiens, UniProt P30968); test: NanoBRET screen HiBiT-GNRHR in HEK293; details: GNRHR
T1 construct: purchased Promega (in-house HiBiT-GPCR construct library, NanoBRET)
T1 sequence (P30968 1-328): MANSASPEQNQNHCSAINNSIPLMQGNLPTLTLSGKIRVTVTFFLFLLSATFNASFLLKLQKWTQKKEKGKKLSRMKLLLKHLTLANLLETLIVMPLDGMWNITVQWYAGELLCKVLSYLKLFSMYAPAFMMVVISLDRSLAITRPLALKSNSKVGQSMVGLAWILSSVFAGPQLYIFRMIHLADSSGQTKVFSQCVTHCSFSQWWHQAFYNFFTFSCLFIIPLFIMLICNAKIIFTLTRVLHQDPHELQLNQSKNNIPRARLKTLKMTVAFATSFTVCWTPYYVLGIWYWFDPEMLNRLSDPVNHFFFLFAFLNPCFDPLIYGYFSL
Experimental: (§1) Each tracer candidate was screened across the entire library of HiBiT-GPCR constructs using NanoBRET as the detection modality. As depicted in Figure 4A, the specificity of interactions was evaluated through decrease in BRET due to competitive displacement of a bound tracer by excess parental compound. Each tracer was analyzed for binding to each HiBiT-GPCR fusion in the absence and in the presence of competing parental compound. Briefly, HEK293 cells were transfected with HiBiT-GPCR constructs diluted into promoterless DNA to reduce expression and maximize translocation to the cell surface. Each tracer candidate was then screened at concentrations of 1 μM and 0.1 μM across cells expressing these fusions. Cells were treated for 1.5 h with tracer either alone or in the presence of 20 μM competing parental compound (i.e., control). BRET was measured upon addition of purified LgBiT and subsequent complementation with HiBiT genetically fused to a GPCR. The specificity of interactions was assessed through a decrease in BRET signal due to competitive displacement of the bound tracer. To further gauge the robustness of these interactions, the fold response over the control (i.e., BRETtracer/BRETcontrol) was calculated. We chose a 1.5-fold response, which translates to ≥7-fold signal over noise as the minimal threshold required to score an interaction as positive. […]. Below we highlight the screening results obtained for our exemplary fluorescent tracers based on Clozapine, Amitriptyline and AZD1283.
(§2) HiBiT-GPCR DNA constructs were diluted in 10 mM Tris pH 8 to a final concentration of 0.01 μg/μL, arrayed in 96-well plates and stored at −20 °C. For transfection, HEK293 cells were suspended in Opti-MEM (without phenol red) supplemented with 2% fetal bovine serum (Seradigm) and 100 units/mL penicillin–streptomycin (Gibco) at a final concentration of 220,000 cells/mL and dispensed into white 96-well plates at 90 μL/well. Subsequent transfections and screens were carried using an Agilent Bravo Automated Liquid Handling Platform. First, the 96-well HiBiT DNA arrays were diluted 25-fold in Opti-MEM (without serum or phenol red) to a final concentration of 0.0004 μg/μL and 20 μL of the diluted DNAs were transferred into new 96-well plates. Next, promoterless carrier DNA (1 μg/μL) was diluted 25-fold (0.04 μg/μL) and then dispensed into the diluted arrays at 20 μL/well. Following brief mixing, Viafect transfection reagent (Promega) diluted 16-fold into Opti-MEM was dispensed into the plates at 40 μL/well. After mixing by pipetting, plates were incubated for 10 min on the pipetting station deck. The DNA-transfection reagent complexes were then added to plates containing cells. To facilitate the screen, 10 μL of DNA-transfection reagent complexes were added in duplicates to the top 4 and bottom 4 rows, resulting in two identical 48-well arrays per plate. Plates with transfected cells were incubated for 18–20 h at 37 °C/5% CO2. A screen of each tracer across the entire library using two different concentrations requires duplicate plates of transfected cells. Depending on the number of tracers being screened, transfections can be scaled up using the same ratios. The next day, for each tracer, four 20× screening solutions in tracer dilution buffer (Promega) were prepared: two duplicates at final concentration of 20 μM and two duplicates at a final concentration of 2 μM. A competing unmodified compound was added to one of each duplicate at a final concentration of 400 μM. The four resulting solutions were diluted 4-fold in Opti-MEM without serum or phenol red to generate 5× solutions (5 µM and 0.5 µM tracer +/− 100 μM competing compound). To screen the library, a BioTek MultiFlo FX liquid dispenser was used to dispense 22.5 µL of tracer solution to the top 4 rows and 22.5 µL tracer + competing compound solution to the 4 bottom rows. Plates were briefly mixed on an orbital shaker and incubated for 1.5 h at room temperature. […]

PTGIR = target: T2, PTGIR (Homo sapiens, UniProt P43119); test: NanoBRET screen HiBiT-PTGIR in HEK293; details: PTGIR
T2 construct: purchased Promega (in-house HiBiT-GPCR construct library, NanoBRET)
Experimental: as §1, §2

GRM3 = target: T3, GRM3 (Homo sapiens, UniProt Q14832); test: NanoBRET screen HiBiT-GRM3 in HEK293; details: GRM3
T3 construct: purchased Promega (in-house HiBiT-GPCR construct library, NanoBRET)
Experimental: as §1, §2

HRH3 = target: T4, HRH3 (Homo sapiens, UniProt Q9Y5N1); test: NanoBRET screen HiBiT-HRH3 in HEK293; details: HRH3
T4 construct: purchased Promega (in-house HiBiT-GPCR construct library, NanoBRET)
Experimental: as §1, §2

T3 sequence (Q14832 23-879): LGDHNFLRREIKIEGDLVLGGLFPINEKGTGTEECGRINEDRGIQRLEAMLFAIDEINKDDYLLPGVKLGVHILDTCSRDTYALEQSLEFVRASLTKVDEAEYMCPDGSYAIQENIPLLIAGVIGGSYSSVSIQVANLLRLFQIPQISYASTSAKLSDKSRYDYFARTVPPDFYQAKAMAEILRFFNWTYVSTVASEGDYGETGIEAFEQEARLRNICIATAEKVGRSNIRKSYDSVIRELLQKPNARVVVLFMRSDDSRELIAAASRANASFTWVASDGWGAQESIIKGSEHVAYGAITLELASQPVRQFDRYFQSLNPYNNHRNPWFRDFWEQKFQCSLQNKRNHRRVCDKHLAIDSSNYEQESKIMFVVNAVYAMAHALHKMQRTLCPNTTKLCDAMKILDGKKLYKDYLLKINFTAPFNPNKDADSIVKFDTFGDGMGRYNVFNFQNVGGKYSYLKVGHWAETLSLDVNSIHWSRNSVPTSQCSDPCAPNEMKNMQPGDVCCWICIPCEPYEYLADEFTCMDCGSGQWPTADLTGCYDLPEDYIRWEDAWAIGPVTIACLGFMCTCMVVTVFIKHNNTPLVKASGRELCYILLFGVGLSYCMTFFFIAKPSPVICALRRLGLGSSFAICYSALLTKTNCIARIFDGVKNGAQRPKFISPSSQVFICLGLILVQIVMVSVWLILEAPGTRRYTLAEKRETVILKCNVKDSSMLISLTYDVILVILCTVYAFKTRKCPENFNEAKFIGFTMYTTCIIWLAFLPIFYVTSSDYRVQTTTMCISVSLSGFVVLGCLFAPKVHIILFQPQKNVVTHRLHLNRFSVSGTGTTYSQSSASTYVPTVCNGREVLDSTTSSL
T4 sequence (Q9Y5N1 whole entry): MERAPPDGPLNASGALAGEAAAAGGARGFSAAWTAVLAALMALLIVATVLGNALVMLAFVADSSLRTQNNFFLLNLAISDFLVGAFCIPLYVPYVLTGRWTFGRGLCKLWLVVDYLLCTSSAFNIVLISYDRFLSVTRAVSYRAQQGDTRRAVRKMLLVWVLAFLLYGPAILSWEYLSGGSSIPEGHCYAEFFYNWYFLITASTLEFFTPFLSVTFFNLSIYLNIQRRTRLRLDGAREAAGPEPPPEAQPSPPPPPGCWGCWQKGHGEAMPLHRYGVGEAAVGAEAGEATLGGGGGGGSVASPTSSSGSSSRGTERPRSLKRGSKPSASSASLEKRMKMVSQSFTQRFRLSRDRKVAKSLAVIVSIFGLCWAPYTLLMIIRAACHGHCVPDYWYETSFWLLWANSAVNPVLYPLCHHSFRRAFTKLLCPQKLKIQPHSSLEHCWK
T2 sequence (P43119 whole entry): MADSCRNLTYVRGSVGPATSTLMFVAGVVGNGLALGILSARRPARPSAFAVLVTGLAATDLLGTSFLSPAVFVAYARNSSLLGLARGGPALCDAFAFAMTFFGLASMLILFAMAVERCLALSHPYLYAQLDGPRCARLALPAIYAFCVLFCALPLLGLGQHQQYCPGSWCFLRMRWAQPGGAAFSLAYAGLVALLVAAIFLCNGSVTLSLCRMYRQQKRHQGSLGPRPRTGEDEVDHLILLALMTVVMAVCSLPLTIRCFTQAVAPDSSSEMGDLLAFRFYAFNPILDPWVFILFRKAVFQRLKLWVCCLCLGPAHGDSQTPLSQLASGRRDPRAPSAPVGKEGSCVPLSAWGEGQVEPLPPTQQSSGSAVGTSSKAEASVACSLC

SMILES	NanoBRET Fold Response (GNRHR; 0.1μM tracer)	NanoBRET Fold Response (GNRHR; 1μM tracer)	NanoBRET Fold Response (PTGIR; 0.1μM tracer)	NanoBRET Fold Response (PTGIR; 1μM tracer)	NanoBRET Fold Response (GRM3; 0.1μM tracer)	NanoBRET Fold Response (GRM3; 1μM tracer)	NanoBRET Fold Response (HRH3; 0.1μM tracer)	NanoBRET Fold Response (HRH3; 1μM tracer)	NanoBRET Fold Response (GNRHR; tracer 0.1μM)	NanoBRET Fold Response (GNRHR; tracer 1μM)	NanoBRET Fold Response (PTGIR; tracer 0.1μM)	NanoBRET Fold Response (PTGIR; tracer 1μM)	NanoBRET Fold Response (GRM3; tracer 0.1μM)	NanoBRET Fold Response (GRM3; tracer 1μM)	NanoBRET Fold Response (HRH3; tracer 0.1μM)	NanoBRET Fold Response (HRH3; tracer 1μM)
O=C(CCOCCOCCOCCOCCNC(=O)CCc1ccc2n1[B-](F)(F)[N+]1=C(c3ccc[nH]3)C=CC1=C2)NCCCN1CCN(C2=Nc3cc(Cl)ccc3Nc3ccccc32)CC1 [Clozapine-a-2-NB590]	1.02	1.24	1.04	0.98	0.97	0.96	0.97	0.91	–	–	–	–	–	–	–	–
CN1CCN(C2=Nc3cc(Cl)ccc3Nc3ccc(CNC(=O)CCOCCOCCOCCOCCNC(=O)CCc4ccc5n4[B-](F)(F)[N+]4=C(c6ccc[nH]6)C=CC4=C5)cc32)CC1 [Clozapine-b-2-NB590]	1.06	1.02	0.98	1.00	0.99	–	0.98	1.06	–	–	–	–	–	–	–	–
CN1CCN(C2=Nc3cc(Cl)ccc3N(CC(=O)NCCOCCOCCOCCOCCNC(=O)CCc3ccc4n3[B-](F)(F)[N+]3=C(c5ccc[nH]5)C=CC3=C4)c3ccccc32)CC1 [Clozapine-c-2-NB590]	1.02	0.99	0.96	1.09	0.93	1.07	0.98	0.86	–	–	–	–	–	–	–	–
O=C(CCOCCOCCOCCOCCNC(=O)CCc1ccc2n1[B-](F)(F)[N+]1=C(c3ccc[nH]3)C=CC1=C2)NCCCN1CCN(C2=Nc3ccccc3Oc3ccc(Cl)cc32)CC1 [Loxapine-a-2-NB590]	–	–	–	–	–	–	–	–	1.03	0.89	0.99	1.04	0.99	1.03	1.06	1.01
COc1ccccc1N1CCN(CCCCN2C(=O)c3ccc(CNC(=O)CCOCCOCCOCCOCCNC(=O)CCc4ccc5n4[B-](F)(F)[N+]4=C(c6ccc[nH]6)C=CC4=C5)cc3C2=O)CC1 [NAN-190-2-NB590]	–	–	–	–	–	–	–	–	0.98	0.95	0.99	1.02	0.95	–	0.98	0.97
COc1ccccc1N1CCN(CCCCN2C(=O)c3ccc(CNC(=O)CCOCCNC(=O)c4ccc(CNC(=O)CCc5ccc6n5[B-](F)(F)[N+]5=C(c7ccc[nH]7)C=CC5=C6)cc4)cc3C2=O)CC1 [NAN-190-3-NB590]	–	–	–	–	–	–	–	–	1.14	0.97	0.95	1.01	0.98	1.25	1.38	0.93
O=C(CCc1ccc2n1[B-](F)(F)[N+]1=C(c3ccc[nH]3)C=CC1=C2)NCc1ccc(C(=O)NCCOCCC(=O)N[C@@H]2CC[C@@]3(O)[C@H]4Cc5ccc(O)c6c5[C@@]3(CCN4CC3CC3)[C@H]2O6)cc1 [Naltrexone-3-NB590]	–	–	–	–	–	–	–	–	0.90	0.99	0.98	1.17	1.15	0.81	0.76	0.77
